Laboratory results taken from patent publication US12655116B2, “Substituted isophthalic acid diamides” (Bayer Aktiengesellschaft, priority 2020, dated 2026).

Tests used:
AMARE [1] = test: Pre-emergence herbicidal action against AMARE; type: in vivo, Amaranthus retroflexus; conditions: Amaranthus retroflexus, 504 h, scored visually after 3 weeks vs untreated controls, 100% = plants have died, 0% = like control plants
Procedure, shortened: (§1)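 Herbicidal effect was assessed 3 weeks after treatment by visual comparison with untreated controls, 100% denoting dead plants. Aqueous WP or EC preparations had been applied at 600 to 800 l/ha with 0.2% wetting agent to the soil covering freshly sown seeds.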

VIOTR [2] = test: Post-emergence herbicidal action against VIOTR; type: in vivo, Viola tricolor; conditions: Viola tricolor, 504 h, 20 g/ha
Procedure, shortened: (§2)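 Herbicidal effect was scored visually in percent after about 3 weeks in the greenhouse. Plants had been raised in sandy loam and treated post-emergence at the one-leaf stage with formulated compound at 600 to 800 l/ha water plus 0.2% wetting agent.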

PHBPU = test: Pre-emergence herbicidal action against PHBPU; type: in vivo, Pharbitis purpurea; conditions: Ipomoea purpurea, 504 h, dosage 80 g/ha
Procedure, shortened: as §1

LOLRI = test: Pre-emergence herbicidal action against LOLRI; type: in vivo, Lolium rigidum; conditions: Lolium rigidum, 504 h, 80 g/ha
Procedure, shortened: as §1

ECHCG [3] = test: Post-emergence herbicidal action against ECHCG; type: in vivo, Echinochloa crus-galli; conditions: Echinochloa crus-galli, 504 h, dosage 20 g/ha
Procedure, shortened: as §2

DIGSA = test: Pre-emergence herbicidal action against DIGSA; type: in vivo, Digitaria sanguinalis; conditions: Digitaria sanguinalis, 504 h
Procedure, shortened: as §1

VIOTR [4] = test: Pre-emergence herbicidal action against VIOTR; type: in vivo, Viola tricolor; conditions: Viola tricolor, 504 h, dosage 80 g/ha
Procedure, shortened: as §1

ALOMY [5] = test: Post-emergence herbicidal action against ALOMY; type: in vivo, Alopecurus myosuroides; conditions: Alopecurus myosuroides, 504 h, visual assessment about 3 weeks after treatment vs untreated controls
Procedure, shortened: as §2

VERPE [6] = test: Pre-emergence herbicidal action against VERPE; type: in vivo, Veronica persica; conditions: Veronica persica, 504 h
Procedure, shortened: as §1

ALOMY [7] = test: Pre-emergence herbicidal action against ALOMY; type: in vivo, Alopecurus myosuroides; conditions: Alopecurus myosuroides, 504 h, pre-emergence
Procedure, shortened: as §1

ECHCG [8] = test: Pre-emergence herbicidal action against ECHCG; type: in vivo, Echinochloa crus-galli; conditions: Echinochloa crus-galli, 504 h
Procedure, shortened: as §1

POLCO = test: Pre-emergence herbicidal action against POLCO; type: in vivo, Polygonum convolvulus; conditions: Fallopia convolvulus, 504 h, dosage 80 g/ha
Procedure, shortened: as §1

AMARE [9] = test: Post-emergence herbicidal action against AMARE; type: in vivo, Amaranthus retroflexus; conditions: Amaranthus retroflexus, 504 h, 20 g/ha, visual assessment about 3 weeks after treatment, 100% = plants have died, 0% = like control plants
Procedure, shortened: as §2

VERPE [10] = test: Post-emergence herbicidal action against VERPE; type: in vivo, Veronica persica; conditions: Veronica persica, 504 h, 20 g/ha
Procedure, shortened: as §2

ABUTH [11] = test: Post-emergence herbicidal action against ABUTH; type: in vivo, Abutilon theophrasti; conditions: Abutilon theophrasti, 504 h, visual assessment about 3 weeks after treatment vs untreated controls
Procedure, shortened: as §2

MATIN [12] = test: Pre-emergence herbicidal action against MATIN; type: in vivo, Matricaria inodora; conditions: Tripleurospermum inodorum, 504 h
Procedure, shortened: as §1

ABUTH [13] = test: Pre-emergence herbicidal action against ABUTH; type: in vivo, Abutilon theophrasti; conditions: Abutilon theophrasti, 504 h
Procedure, shortened: as §1

SETVI = test: Pre-emergence herbicidal action against SETVI; type: in vivo, Setaria viridis; conditions: Setaria viridis, 504 h, dosage 80 g/ha
Procedure, shortened: as §1

MATIN [14] = test: Post-emergence herbicidal action against MATIN; type: in vivo, Matricaria inodora; conditions: Tripleurospermum inodorum, 504 h
Procedure, shortened: as §2

[15] = 80 g/ha, scored visually after 3 weeks vs untreated controls (100% = plants have died, 0% = like control plants)

## CCCNC(=O)c1c(C(F)(F)F)ccc(C(=O)Nc2nnnn2C)c1C [Example 1-32]
AMARE [1]; 20 g/ha
  pest or weed control at 20 g/ha: 100%
AMARE [1]; 80 g/ha
  pest or weed control at 80 g/ha: 100%
VIOTR [2]
  pest or weed control at 20 g/ha: 80%
PHBPU
  pest or weed control at 80 g/ha: 80%
LOLRI
  pest or weed control at 80 g/ha: 90%
ECHCG [3]
  pest or weed control at 20 g/ha: 90%
DIGSA; dosage 20 g/ha
  pest or weed control at 20 g/ha: 100%
DIGSA; dosage 80 g/ha
  pest or weed control at 80 g/ha: 100%
VIOTR [4]
  pest or weed control at 80 g/ha: 100%
ALOMY [5]; dosage 5 g/ha
  pest or weed control at 5 g/ha: 80%
ALOMY [5]; dosage 20 g/ha
  pest or weed control at 20 g/ha: 90%
VERPE [6]; dosage 20 g/ha
  pest or weed control at 20 g/ha: 80%
VERPE [6]; dosage 80 g/ha
  pest or weed control at 80 g/ha: 100%
ALOMY [7]; [15]
  pest or weed control at 80 g/ha: 100%
ALOMY [7]; 20 g/ha, scored visually after 3 weeks, 100% = plants have died, 0% = like control plants
  pest or weed control at 20 g/ha: 80%
ECHCG [8]; 20 g/ha
  pest or weed control at 20 g/ha: 80%
ECHCG [8]; 80 g/ha
  pest or weed control at 80 g/ha: 100%
POLCO
  pest or weed control at 80 g/ha: 100%
AMARE [9]
  pest or weed control at 20 g/ha: 90%
VERPE [10]
  pest or weed control at 20 g/ha: 90%
ABUTH [11]; dosage 5 g/ha
  pest or weed control at 5 g/ha: 90%
ABUTH [11]; dosage 20 g/ha
  pest or weed control at 20 g/ha: 90%
MATIN [12]; dosage 20 g/ha
  pest or weed control at 20 g/ha: 100%
MATIN [12]; dosage 80 g/ha
  pest or weed control at 80 g/ha: 100%
ABUTH [13]; [15]
  pest or weed control at 80 g/ha: 100%
ABUTH [13]; dosage 20 g/ha, scored visually after 3 weeks vs untreated controls, 100% = plants have died, 0% = like control plants, read-out: Pre-emergence action against ABUTH (herbicidal activity in percent)
  pest or weed control at 20 g/ha: 100%
SETVI
  pest or weed control at 80 g/ha: 100%
MATIN [14]; dosage 5 g/ha
  pest or weed control at 5 g/ha: 80%
MATIN [14]; dosage 20 g/ha
  pest or weed control at 20 g/ha: 90%
